Laboratory results taken from publication PMC7368294 (Proceedings of the National Academy of Sciences of the …, 2020).
Like-named read-outs stand apart in the source and are kept apart here.

Tests used:
[1] = molecular target: Btα1/Btα2/Btα8/Btβ1 nAChR (Bombus terrestris, UniProt A0A9B0BGM1+A0A9B0F4H3+A0A9B2JDZ7+A0A9B2JMX7); assay: two-electrode voltage clamp of Xenopus oocytes, agonist concentration-response; format: cell-based
Amα1/Amα8/Amβ1 nAChR = molecular target: T1, Amα1/Amα8/Amβ1 nAChR (Apis mellifera, UniProt A0A7M7MMZ9+A0A8U0WQ70+A0A8U0WQC0); assay: cell-based; parameters: species or system Xenopus laevis oocytes; settings: Oocyte
T1 sequence (A0A7M7MMZ9 44-627): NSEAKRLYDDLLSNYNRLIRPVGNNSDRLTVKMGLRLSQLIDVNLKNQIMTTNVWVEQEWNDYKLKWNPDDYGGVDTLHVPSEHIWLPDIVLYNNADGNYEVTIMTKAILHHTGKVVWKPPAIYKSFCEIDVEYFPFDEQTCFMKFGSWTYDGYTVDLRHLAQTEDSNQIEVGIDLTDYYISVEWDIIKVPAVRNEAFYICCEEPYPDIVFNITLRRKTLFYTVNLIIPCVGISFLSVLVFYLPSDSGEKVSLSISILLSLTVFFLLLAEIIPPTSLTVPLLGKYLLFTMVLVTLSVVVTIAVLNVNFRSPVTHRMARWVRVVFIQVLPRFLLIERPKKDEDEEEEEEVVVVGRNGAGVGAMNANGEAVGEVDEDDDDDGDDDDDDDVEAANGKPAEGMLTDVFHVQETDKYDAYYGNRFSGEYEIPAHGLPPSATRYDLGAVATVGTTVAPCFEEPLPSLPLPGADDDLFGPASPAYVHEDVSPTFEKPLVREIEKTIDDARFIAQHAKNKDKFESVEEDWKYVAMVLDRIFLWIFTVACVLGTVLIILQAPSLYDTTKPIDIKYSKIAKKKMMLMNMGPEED
T1 sequence (A0A8U0WQ70 25-537): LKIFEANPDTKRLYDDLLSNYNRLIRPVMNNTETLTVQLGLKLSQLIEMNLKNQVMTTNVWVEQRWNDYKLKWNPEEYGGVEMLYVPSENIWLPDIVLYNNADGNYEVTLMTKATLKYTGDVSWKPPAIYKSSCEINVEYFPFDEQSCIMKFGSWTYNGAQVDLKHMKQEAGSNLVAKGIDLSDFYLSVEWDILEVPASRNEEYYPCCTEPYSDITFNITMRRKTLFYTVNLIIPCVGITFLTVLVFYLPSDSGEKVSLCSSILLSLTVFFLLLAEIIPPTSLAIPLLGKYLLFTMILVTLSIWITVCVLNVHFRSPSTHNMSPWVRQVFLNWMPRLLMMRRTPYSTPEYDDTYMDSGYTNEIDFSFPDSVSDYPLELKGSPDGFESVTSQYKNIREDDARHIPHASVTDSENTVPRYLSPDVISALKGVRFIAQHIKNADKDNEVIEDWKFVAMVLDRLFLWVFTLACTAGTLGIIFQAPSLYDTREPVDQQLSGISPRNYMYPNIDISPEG
T1 sequence (A0A8U0WQC0 25-520): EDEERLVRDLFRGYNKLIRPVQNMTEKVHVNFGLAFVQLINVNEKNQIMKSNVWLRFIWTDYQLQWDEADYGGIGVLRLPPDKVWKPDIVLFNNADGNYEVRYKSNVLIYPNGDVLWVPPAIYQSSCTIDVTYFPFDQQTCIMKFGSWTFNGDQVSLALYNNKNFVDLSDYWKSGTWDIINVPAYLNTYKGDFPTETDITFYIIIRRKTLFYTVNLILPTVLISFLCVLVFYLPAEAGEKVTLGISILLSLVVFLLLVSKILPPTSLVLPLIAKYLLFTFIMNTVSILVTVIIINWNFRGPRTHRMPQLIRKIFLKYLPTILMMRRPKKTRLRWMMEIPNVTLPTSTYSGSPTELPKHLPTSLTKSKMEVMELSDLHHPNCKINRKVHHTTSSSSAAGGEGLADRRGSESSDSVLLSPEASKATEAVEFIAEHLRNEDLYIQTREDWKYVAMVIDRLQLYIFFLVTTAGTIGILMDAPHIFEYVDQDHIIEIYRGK

[2] = molecular target: Amα1/Amα2/Amα8/Amβ1 nAChR (Apis mellifera, UniProt A0A7M7MMZ9+A0A8U0WQ70+A0A8U0WQC0+A0A8U0WQD1); assay: cell-based; parameters: species or system Xenopus laevis oocytes; settings: Oocyte
Sequence of Amα1/Amα2/Amα8/Amβ1 nAChR (A0A8U0WQD1 18-541, one chain of several): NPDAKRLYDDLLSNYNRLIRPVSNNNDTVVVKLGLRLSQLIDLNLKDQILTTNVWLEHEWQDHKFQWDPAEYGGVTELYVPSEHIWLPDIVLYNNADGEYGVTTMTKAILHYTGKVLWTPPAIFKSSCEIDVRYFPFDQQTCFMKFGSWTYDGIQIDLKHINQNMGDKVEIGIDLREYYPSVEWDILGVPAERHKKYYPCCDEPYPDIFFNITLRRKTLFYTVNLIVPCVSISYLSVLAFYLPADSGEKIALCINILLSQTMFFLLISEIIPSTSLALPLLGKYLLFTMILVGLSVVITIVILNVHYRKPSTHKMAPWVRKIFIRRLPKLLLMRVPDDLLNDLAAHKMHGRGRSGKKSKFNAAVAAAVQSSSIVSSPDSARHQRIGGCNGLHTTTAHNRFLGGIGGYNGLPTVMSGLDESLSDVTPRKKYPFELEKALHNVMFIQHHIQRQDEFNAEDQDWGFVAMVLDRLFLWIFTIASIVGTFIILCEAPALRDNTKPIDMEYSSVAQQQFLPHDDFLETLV

Sequence of Btα1/Btα2/Btα8/Btβ1 nAChR (A0A9B0F4H3 44-615): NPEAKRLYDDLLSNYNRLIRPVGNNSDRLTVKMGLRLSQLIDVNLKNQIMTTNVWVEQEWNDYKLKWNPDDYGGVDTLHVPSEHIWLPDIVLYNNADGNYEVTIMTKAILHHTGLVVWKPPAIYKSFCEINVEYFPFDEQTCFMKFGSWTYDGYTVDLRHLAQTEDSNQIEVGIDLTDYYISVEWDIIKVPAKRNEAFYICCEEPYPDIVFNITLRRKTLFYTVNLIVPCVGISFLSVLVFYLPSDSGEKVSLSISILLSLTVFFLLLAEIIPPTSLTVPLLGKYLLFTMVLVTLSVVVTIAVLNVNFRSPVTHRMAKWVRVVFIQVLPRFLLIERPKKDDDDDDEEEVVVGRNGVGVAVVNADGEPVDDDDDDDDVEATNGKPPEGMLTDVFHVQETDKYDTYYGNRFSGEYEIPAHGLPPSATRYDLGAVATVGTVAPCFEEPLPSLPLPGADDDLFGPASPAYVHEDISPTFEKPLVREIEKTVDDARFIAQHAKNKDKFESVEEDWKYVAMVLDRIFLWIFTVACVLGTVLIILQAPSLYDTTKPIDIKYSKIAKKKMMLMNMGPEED
Sequence of Btα1/Btα2/Btα8/Btβ1 nAChR (A0A9B2JMX7 18-544): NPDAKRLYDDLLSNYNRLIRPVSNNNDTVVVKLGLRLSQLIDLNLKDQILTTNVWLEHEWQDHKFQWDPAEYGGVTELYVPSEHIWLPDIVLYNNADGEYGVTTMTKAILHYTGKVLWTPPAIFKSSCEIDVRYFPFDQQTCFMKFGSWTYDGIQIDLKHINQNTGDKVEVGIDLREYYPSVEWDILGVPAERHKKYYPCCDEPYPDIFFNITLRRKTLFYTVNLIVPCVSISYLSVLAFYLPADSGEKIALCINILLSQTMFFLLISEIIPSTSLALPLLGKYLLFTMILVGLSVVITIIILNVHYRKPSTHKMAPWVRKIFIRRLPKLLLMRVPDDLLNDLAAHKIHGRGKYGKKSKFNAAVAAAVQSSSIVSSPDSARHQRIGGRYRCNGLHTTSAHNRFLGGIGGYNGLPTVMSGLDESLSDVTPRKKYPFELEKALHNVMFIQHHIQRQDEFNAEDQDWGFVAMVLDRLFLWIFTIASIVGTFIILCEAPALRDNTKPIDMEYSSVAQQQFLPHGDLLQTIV
Sequence of Btα1/Btα2/Btα8/Btβ1 nAChR (A0A9B2JDZ7 22-535): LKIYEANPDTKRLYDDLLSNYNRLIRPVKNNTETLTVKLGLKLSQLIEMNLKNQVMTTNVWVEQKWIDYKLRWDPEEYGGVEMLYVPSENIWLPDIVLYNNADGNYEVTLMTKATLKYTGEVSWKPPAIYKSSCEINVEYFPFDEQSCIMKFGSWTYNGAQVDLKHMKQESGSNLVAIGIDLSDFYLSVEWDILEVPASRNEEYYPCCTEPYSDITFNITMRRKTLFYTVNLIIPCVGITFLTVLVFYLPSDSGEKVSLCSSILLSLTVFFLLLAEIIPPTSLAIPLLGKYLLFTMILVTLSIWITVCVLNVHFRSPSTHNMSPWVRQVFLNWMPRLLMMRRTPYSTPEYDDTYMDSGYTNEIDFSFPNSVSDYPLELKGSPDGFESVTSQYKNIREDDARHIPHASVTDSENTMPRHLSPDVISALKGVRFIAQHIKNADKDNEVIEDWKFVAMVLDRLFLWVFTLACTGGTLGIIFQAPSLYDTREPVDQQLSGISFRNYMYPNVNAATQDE
Sequence of Btα1/Btα2/Btα8/Btβ1 nAChR (A0A9B0BGM1 19-519): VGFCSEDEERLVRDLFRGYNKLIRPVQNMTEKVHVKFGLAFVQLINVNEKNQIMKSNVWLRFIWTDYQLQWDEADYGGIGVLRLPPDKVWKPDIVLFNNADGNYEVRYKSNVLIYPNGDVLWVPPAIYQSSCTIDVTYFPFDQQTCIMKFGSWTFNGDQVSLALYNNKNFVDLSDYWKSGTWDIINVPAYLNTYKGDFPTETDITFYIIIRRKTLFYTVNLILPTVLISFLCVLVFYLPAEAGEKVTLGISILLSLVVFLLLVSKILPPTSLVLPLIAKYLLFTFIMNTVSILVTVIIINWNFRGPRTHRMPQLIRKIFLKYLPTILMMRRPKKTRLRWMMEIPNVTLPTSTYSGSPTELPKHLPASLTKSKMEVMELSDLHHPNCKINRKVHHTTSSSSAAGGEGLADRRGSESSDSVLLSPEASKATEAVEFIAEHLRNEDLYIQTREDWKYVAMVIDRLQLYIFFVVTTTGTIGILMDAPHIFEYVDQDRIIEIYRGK

## N#C/N=C1\SCCN1Cc1ccc(Cl)nc1 [thiacloprid]
[1]
  EC50: 72.4 nM
Amα1/Amα8/Amβ1 nAChR; read-out: Thiacloprid / Imax
  Emax: 5.8 ± 0.6%
[2]; read-out: Thiacloprid / Imax
  Emax: 3.7 ± 0.3%

## CN/C(=N\[N+](=O)[O-])NCc1cnc(Cl)s1 [clothianidin]
[1]
  EC50: 38.9 nM
Amα1/Amα8/Amβ1 nAChR; read-out: Clothianidin / Imax
  Emax: 78.8 ± 2%
[2]; read-out: Clothianidin / Imax
  Emax: 76.6 ± 2.4%

## O=[N+]([O-])NC1=NCCN1Cc1ccc(Cl)nc1 [imidacloprid]
[1]
  EC50: 39.8 nM
Amα1/Amα8/Amβ1 nAChR; read-out: Imidacloprid / Imax
  Emax: 7.5 ± 0.4%
[2]; read-out: Imidacloprid / Imax
  Emax: 7 ± 0.5%
